This note sets out measurements from PubChem BioAssay AID1745844 (Carcinogenic Potency Database (CPDB), 2022).

The data set relates to rodent lifetime carcinogenesis bioassay, tumor incidence TD50. Briefly: chronic cancer bioassays in animals – CPDB, compiled studies (AID 1745844).

Active and inactive are the calls of the source. The rule behind the calls is not given here.

For `C=CCOC(=O)c1ccccc1C(=O)OCC=C`, the TD50 runs as follows: (mouse, strain B6C3F1, females, by gavage, site: any site (literature study), lesion: several types, types named in the paper, dosed 103 weeks, study length 106 weeks) 10100 mg/kg/day; (mouse, strain B6C3F1, females, by gavage, site: forestomach, lesion: papilloma, NOS, dosed 103 weeks, study length 106 weeks) 2730 mg/kg/day; (mouse, strain B6C3F1, females, by gavage, site: liver, lesion: hepatocellular adenoma + hepatocellular carcinoma + neoplastic nodule, dosed 103 weeks, study length 106 weeks) 2930 mg/kg/day; (mouse, strain B6C3F1, females, by gavage, site: lung, lesion: alveolar/bronchiolar adenoma + alveolar/bronchiolar carcinoma, dosed 103 weeks, study length 106 weeks) 4180 mg/kg/day; (mouse, strain B6C3F1, males, by gavage, site: all sites, lesion: malignant lymphoma, NOS, dosed 103 weeks, study length 106 weeks) 816 mg/kg/day; (mouse, strain B6C3F1, males, by gavage, site: any site (literature study), lesion: several types, types named in the paper, dosed 103 weeks, study length 106 weeks) 717 mg/kg/day. The TD50 (mouse, strain B6C3F1, males, by gavage, site: forestomach, lesion: papilloma, NOS, dosed 103 weeks, study length 106 weeks) was 2460 mg/kg/day; the TD50 (mouse, strain B6C3F1, males, by gavage, site: liver, lesion: hepatocellular adenoma + hepatocellular carcinoma + neoplastic nodule, dosed 103 weeks, study length 106 weeks) came to 6680 mg/kg/day; the TD50 (mouse, strain B6C3F1, males, by gavage, site: liver, lesion: hepatocellular adenoma, dosed 103 weeks, study length 106 weeks) worked out at 2450 mg/kg/day; the TD50 (mouse, strain B6C3F1, males, by gavage, site: lung, lesion: alveolar/bronchiolar adenoma + alveolar/bronchiolar carcinoma, dosed 103 weeks, study length 106 weeks) worked out at 8520 mg/kg/day; the TD50 (rat, strain Fischer 344, females, by gavage, site: all sites, lesion: mononuclear-cell leukemia, dosed 103 weeks, study length 104 weeks) stood at 138 mg/kg/day; the TD50 (rat, strain Fischer 344, females, by gavage, site: any site (literature study), lesion: several types, types named in the paper, dosed 103 weeks, study length 104 weeks) was 163 mg/kg/day. For the same molecule, the TD50 (rat, strain Fischer 344, males, by gavage, site: any site (literature study), lesion: several types, types named in the paper, dosed 103 weeks, study length 104 weeks) was 2990 mg/kg/day (inactive).
For the molecule `C=C1C[C@@]23CC[C@H]4[C@@](C)(CCC[C@@]4(C)C(=O)O[C@@H]4O[C@H](CO)[C@@H](O)[C@H](O)[C@H]4O)[C@@H]2CC[C@]1(O[C@@H]1O[C@H](CO)[C@@H](O)[C@H](O)[C@H]1O[C@@H]1O[C@H](CO)[C@@H](O)[C@H](O)[C@H]1O)C3`, the TD50 by setting is: (rat, strain F344/DuCrj, females, in feed, site: any site (literature study), lesion: several types, types named in the paper, dosed 104 weeks, study length 108 weeks) 34400 mg/kg/day (inactive); (rat, strain F344/DuCrj, males, in feed, site: liver, lesion: hepatocellular carcinoma, dosed 104 weeks, study length 108 weeks) 101000 mg/kg/day (inactive). Moreover, the carcinogen call runs as follows: (rat, strain F344/DuCrj, females, in feed, site: liver, lesion: one or several types, types not named, dosed 104 weeks, study length 108 weeks) “negative (inactive)”; (rat, strain F344/DuCrj, males, in feed, site: any site (literature study), lesion: several types, types named in the paper, dosed 104 weeks, study length 108 weeks) “negative (inactive)”; (rat, strain F344/DuCrj, males, in feed, site: liver, lesion: hepatocellular adenoma, dosed 104 weeks, study length 108 weeks) “negative (inactive)”.
As for `O=NN1CC=CCC1`, the TD50 by setting is: (rat, strain Fischer 344, females, in drinking water, site: esophagus, lesion: several types, types named in the paper, dosed 25 weeks, study length 128 weeks) 0.216 mg/kg/day; (rat, strain Fischer 344, females, in drinking water, site: esophagus, lesion: several types, types named in the paper, dosed 70 weeks, study length 100 weeks) 0.127 mg/kg/day; (rat, strain Fischer 344, females, in drinking water, site: esophagus, lesion: several types, types named in the paper, dosed 100 weeks, study length 128 weeks) 0.0669 mg/kg/day; (rat, strain Fischer 344, females, in drinking water, site: esophagus, lesion: squamous-cell carcinoma, dosed 100 weeks, study length 128 weeks) 0.43 mg/kg/day; (rat, strain Fischer 344, females, in drinking water, site: liver, lesion: hemangiosarcoma, dosed 25 weeks, study length 128 weeks) 4.04 mg/kg/day; (rat, strain Fischer 344, females, in drinking water, site: liver, lesion: hyperplastic nodule, dosed 70 weeks, study length 100 weeks) 2.15 mg/kg/day. Moreover, the TD50 was 0.284 mg/kg/day (rat, strain Fischer 344, females, in drinking water, site: liver, lesion: hyperplastic nodule, dosed 100 weeks, study length 128 weeks); 0.132 mg/kg/day (rat, strain Fischer 344, females, in drinking water, site: liver, lesion: several types, types named in the paper, dosed 100 weeks, study length 128 weeks); 0.0551 mg/kg/day (rat, strain Fischer 344, females, in drinking water, site: stomach, nonglandular, lesion: basal-cell papilloma, dosed 100 weeks, study length 128 weeks); 0.271 mg/kg/day (rat, strain Fischer 344, females, in drinking water, site: upper gastrointestinal tract, lesion: carcinoma, dosed 25 weeks, study length 128 weeks); 0.0966 mg/kg/day (rat, strain Fischer 344, females, in drinking water, site: upper gastrointestinal tract, lesion: carcinoma, dosed 70 weeks, study length 100 weeks); 0.0856 mg/kg/day (rat, strain Fischer 344, females, in drinking water, site: upper gastrointestinal tract, lesion: carcinoma, dosed 100 weeks, study length 128 weeks). Moreover, the TD50 is 0.142 mg/kg/day (rat, strain Fischer 344, females, in drinking water, site: upper gastrointestinal tract, lesion: several types, types named in the paper, dosed 25 weeks, study length 128 weeks) and 0.0374 mg/kg/day (rat, strain Fischer 344, females, in drinking water, site: upper gastrointestinal tract, lesion: several types, types named in the paper, dosed 100 weeks, study length 128 weeks). Further, the carcinogen call (rat, strain Fischer 344, females, in drinking water, site: liver, lesion: hepatocellular carcinoma, dosed 25 weeks, study length 128 weeks) is “positive”; the carcinogen call (rat, strain Fischer 344, females, in drinking water, site: liver, lesion: several types, types named in the paper, dosed 25 weeks, study length 128 weeks) is “positive”; the carcinogen call (rat, strain Fischer 344, females, in drinking water, site: stomach, nonglandular, lesion: basal-cell papilloma, dosed 25 weeks, study length 128 weeks) is “positive”; the carcinogen call (rat, strain Fischer 344, females, in drinking water, site: upper gastrointestinal tract, lesion: several types, types named in the paper, dosed 70 weeks, study length 100 weeks) is “positive”.
Consider `CN(CCCC(O)c1cccnc1)N=O` (stereo not given), for which the TD50 is 1.39 mg/kg/day (rat, strain Fischer 344, males, in drinking water, site: adrenal medulla, lesion: one or several types, types not named, dosed 112 weeks, study length 112 weeks); 5.86 mg/kg/day (rat, strain Fischer 344, males, in drinking water, site: liver, lesion: hepatoma, dosed 112 weeks, study length 112 weeks); 7.25 mg/kg/day (rat, strain Fischer 344, males, in drinking water, site: liver, lesion: several types, types named in the paper, dosed 112 weeks, study length 112 weeks); 0.409 mg/kg/day (rat, strain Fischer 344, males, in drinking water, site: lung, lesion: adenocarcinoma, dosed 112 weeks, study length 112 weeks); 1.38 mg/kg/day (rat, strain Fischer 344, males, in drinking water, site: lung, lesion: adenoma, dosed 112 weeks, study length 112 weeks); 0.577 mg/kg/day (rat, strain Fischer 344, males, in drinking water, site: lung, lesion: adenosquamous carcinoma, dosed 112 weeks, study length 112 weeks). Besides, the TD50 was 0.103 mg/kg/day (rat, strain Fischer 344, males, in drinking water, site: lung, lesion: several types, types named in the paper, dosed 112 weeks, study length 112 weeks); 2.14 mg/kg/day (rat, strain Fischer 344, males, in drinking water, site: pancreas, exocrine, lesion: acinar-cell adenoma, dosed 112 weeks, study length 112 weeks); 1.09 mg/kg/day (rat, strain Fischer 344, males, in drinking water, site: pancreas, exocrine, lesion: adenocarcinoma, acinar or ductal, dosed 112 weeks, study length 112 weeks); 0.668 mg/kg/day (rat, strain Fischer 344, males, in drinking water, site: pancreas, exocrine, lesion: several types, types named in the paper, dosed 112 weeks, study length 112 weeks).
Molecule `NC(=S)C(N)=S` yielded a TD50 (rat, strain Charles River CD (Sprague-Dawley), females, in feed, site: mammary gland, lesion: one or several types, types not named, dosed 78 weeks, study length 104 weeks) of 12.6 mg/kg/day.
Regarding `Clc1ccc(Sc2cc(Cl)c(Cl)cc2Cl)cc1`, the carcinogen call reads like this: (rat, strain Wistar, females, in feed, site: liver, lesion: one or several types, types not named, dosed 104 weeks, study length 104 weeks) “negative (inactive)”; (rat, strain Wistar, females, in feed, site: liver, lesion: one or several types, types not named, dosed 116 weeks, study length 116 weeks) “negative (inactive)”; (rat, strain Wistar, males, in feed, site: liver, lesion: one or several types, types not named, dosed 104 weeks, study length 104 weeks) “negative (inactive)”. Besides, the TD50 (rat, strain Wistar, males, in feed, site: liver, lesion: hepatoma, dosed 116 weeks, study length 116 weeks) was 4590 mg/kg/day (inactive).
In the case of `CS(=O)(=O)OCCCCOS(C)(=O)=O`, the TD50 runs as follows: (rat, strain BR 46, males, by gavage, site: any site (literature study), lesion: benign tumor, dosed 52 weeks, study length 104 weeks) 0.642 mg/kg/day; (rat, strain BR 46, males, by gavage, site: any site (literature study), lesion: malignant tumor, dosed 52 weeks, study length 104 weeks) 0.117 mg/kg/day; (rat, strain BR 46, males, by gavage, site: any site (literature study), lesion: several types, types named in the paper, dosed 52 weeks, study length 104 weeks) 0.0931 mg/kg/day.
Take `C=C(C)C`: the carcinogen call runs as follows: (mouse, strain B6C3F1, females, inhaled, site: any site (literature study), lesion: several types, types named in the paper, dosed 105 weeks, study length 105 weeks) “negative (inactive)”; (rat, strain Fischer 344, females, inhaled, site: any site (literature study), lesion: several types, types named in the paper, dosed 104 weeks, study length 104 weeks) “negative (inactive)”. The TD50 runs as follows: (mouse, strain B6C3F1, females, inhaled, site: liver, lesion: hepatocellular adenoma + hepatoblastoma + hepatocellular carcinoma, dosed 105 weeks, study length 105 weeks) 47800 mg/kg/day; (mouse, strain B6C3F1, males, inhaled, site: any site (literature study), lesion: several types, types named in the paper, dosed 104 weeks, study length 104 weeks) 8840 mg/kg/day (inactive); (rat, strain Fischer 344, females, inhaled, site: liver, lesion: hepatocellular adenoma + hepatoblastoma + hepatocellular carcinoma, dosed 104 weeks, study length 104 weeks) 30100 mg/kg/day; (rat, strain Fischer 344, males, inhaled, site: thyroid gland, lesion: follicular-cell carcinoma, dosed 104 weeks, study length 104 weeks) 3550 mg/kg/day.
